For the experiment, the target named is T1, P2X7 receptor (Homo sapiens, UniProt Q99572).
T1 construct: host or cells: THP-1 cells differentiated with LPS and IFN-γ
T1 sequence (Q99572 1-595): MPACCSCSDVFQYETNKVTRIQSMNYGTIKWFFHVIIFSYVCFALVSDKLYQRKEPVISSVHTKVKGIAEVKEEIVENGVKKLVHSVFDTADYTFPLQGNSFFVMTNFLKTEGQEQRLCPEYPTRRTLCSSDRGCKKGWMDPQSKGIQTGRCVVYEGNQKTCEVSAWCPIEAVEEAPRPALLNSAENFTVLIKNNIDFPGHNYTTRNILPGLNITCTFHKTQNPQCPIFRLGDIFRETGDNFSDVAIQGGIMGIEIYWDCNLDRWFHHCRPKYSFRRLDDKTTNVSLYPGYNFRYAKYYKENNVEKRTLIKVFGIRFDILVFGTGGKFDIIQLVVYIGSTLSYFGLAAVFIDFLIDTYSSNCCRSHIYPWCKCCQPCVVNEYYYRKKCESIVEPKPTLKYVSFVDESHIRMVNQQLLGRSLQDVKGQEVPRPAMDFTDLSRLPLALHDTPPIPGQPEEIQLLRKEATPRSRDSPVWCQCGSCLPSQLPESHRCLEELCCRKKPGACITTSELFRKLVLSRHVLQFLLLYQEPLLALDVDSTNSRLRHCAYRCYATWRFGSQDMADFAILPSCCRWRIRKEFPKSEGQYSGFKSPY
The experiment is described as follows: Alternate method for IL-1β release assay (differentiated THP-1 cells, BzATP-stimulated, ELISA). Format: cell-based. As to conditions: P2X7; for inhibition at 0.1 µM: 0.1 μM compound (plus symbols), read-out: IL-1β % inhib @ 0.1 μM; for inhibition at 0.3 µM: 0.3 μM compound (asterisk symbols), read-out: IL-1β % inhib @ 0.3 μM. As for the experimental part: Alternate Method for IL-1β Release Assay
THP-1 cells (ATCC Cat #285-IF-100) are plated in 96 well plates at a concentration of 200,000 cells per well and allowed to differentiate in RPMI-1640 media (ATCC Cat #30-2001) containing 10% FBS, 100 IU/mL penicillin, 100 ug/mL streptomycin, 100 ng/mL LPS and 100 ng/mL IFN-γ for 16 hours. Following differentiation, the cells are treated for an additional 2 hours in RPMI-1640 media containing 100 IU/mL penicillin, 100 ug/mL streptomycin and fresh LPS at 100 ng/mL. The cells are then pretreated for 30 minutes with the compound of interest at the appropriate concentration in RPMI media containing 100 IU/mL penicillin, 100 ug/mL streptomycin. Following the pretreatment 2′,3′-O-(4-benzoylbenzoyl)-adenosine 5′-triphosphate (Sigma Aldrich Cat# B6396) is added to a final concentration of 250 uM and the cells incubated for an additional 45 minutes. 30 uL of cell supernatant is then collected and IL-1β levels determined via ELISA (R&D systems Cat. # HSLB50) according to manufacturers recommendations using the Tecan Safire plate reader. Background adjusted IL-1β levels of drug treated and non-treated cells are used to calculate the percent inhibition.
(In an ELISA, binding on a coated surface is turned into a signal by an enzyme label.)

This passage reports inhibition results from patent US20100022531A1, “NOVEL COMPOUNDS AS P2X7 MODULATORS AND USES THEREOF” (RENOVIS, INC., priority 2005, published 2010).

The structures appear in SMILES notation.

Regarding `O=C(c1cccc(F)c1)N1CCc2c(ncnc2NCC23CC4CC(CC(C4)C2)C3)C1` [Compound 83], the inhibition at 0.1 µM is greater than 75%.
`O=C(c1ccc(OC(F)(F)F)cc1)N1CCc2c(ncnc2NCC23CC4CC(CC(C4)C2)C3)C1` [Compound 84]: the inhibition at 0.3 µM lay within 0 to 25%.
Consider `CCc1ccc(C(=O)N2CCc3c(ncnc3NCC34CC5CC(CC(C5)C3)C4)C2)cc1` [Compound 85], for which the inhibition at 0.3 µM fell in the range of 50 to 75%.
On to `Cc1cccc(C(=O)N2CCc3c(ncnc3NCC34CC5CC(CC(C5)C3)C4)C2)c1` [Compound 86], for which the inhibition at 0.3 µM was greater than 75%.
With `O=C(c1ccc(F)c(F)c1)N1CCc2c(ncnc2NCC23CC4CC(CC(C4)C2)C3)C1` [Compound 88], the inhibition at 0.3 µM is greater than 75%.
Take `O=C(c1cccc(C(F)(F)F)c1)N1CCc2c(ncnc2NCC23CC4CC(CC(C4)C2)C3)C1` [Compound 89]: the inhibition at 0.3 µM lay within 25 to 50%.
The same measure, in the same setting: with `COc1ccc(C(=O)N2CCc3c(ncnc3NCC34CC5CC(CC(C5)C3)C4)C2)cc1` [Compound 90] the figure was 0 to 25%; with `O=C(C(c1ccccc1)c1ccccc1)N1CCc2c(ncnc2NCC23CC4CC(CC(C4)C2)C3)C1` [Compound 92], 0 to 25%; with `O=C(Cc1ccc(F)cc1)N1CCc2c(ncnc2NCC23CC4CC(CC(C4)C2)C3)C1` [Compound 96], 50 to 75%.
With `N#Cc1cccc(C(=O)N2CCc3c(ncnc3NCC34CC5CC(CC(C5)C3)C4)C2)c1` [Compound 97], the inhibition at 0.1 µM was greater than 75%.
For the compound `O=C(c1ccc(C(F)(F)F)cc1)N1CCc2c(ncnc2NCC23CC4CC(CC(C4)C2)C3)C1` [Compound 98], the inhibition at 0.3 µM lay in the range of 25 to 50%.
Same read-out and setting: for `O=C(c1ccc(Cl)c(Cl)c1)N1CCc2c(ncnc2NCC23CC4CC(CC(C4)C2)C3)C1` [Compound 100] the value was 25 to 50%.
As to `COc1cc(OC)cc(C(=O)N2CCc3c(ncnc3NCC34CC5CC(CC(C5)C3)C4)C2)c1` [Compound 101], the inhibition at 0.3 µM lay in the range of 0 to 25%.
`O=C(c1c(F)cccc1F)N1CCc2c(ncnc2NCC23CC4CC(CC(C4)C2)C3)C1` [Compound 102]: the inhibition at 0.3 µM was 50 to 75%.
With `O=C(CCc1ccccc1)N1CCc2c(ncnc2NCC23CC4CC(CC(C4)C2)C3)C1` [Compound 103], the inhibition at 0.3 µM is greater than 75%.
Take `O=C(COc1ccccc1)N1CCc2c(ncnc2NCC23CC4CC(CC(C4)C2)C3)C1` [Compound 104]: the inhibition at 0.1 µM was 50 to 75%.
The same measure, in the same setting: for `COc1cccc(C(=O)N2CCc3c(ncnc3NCC34CC5CC(CC(C5)C3)C4)C2)c1` [Compound 105] the value was 25 to 50%.
As to `O=C(c1ccc(F)cc1)N1CCc2c(ncnc2NCC23CC4CC(CC(C4)C2)C3)C1` [Compound 106], the inhibition at 0.1 µM was greater than 75%.
As to `CC(C)(C)C(=O)N1CCc2c(ncnc2NCC23CC4CC(CC(C4)C2)C3)C1` [Compound 107], the inhibition at 0.3 µM fell in the range of 50 to 75%.
For `O=C(c1cccc(Cl)c1)N1CCc2c(ncnc2NCC23CC4CC(CC(C4)C2)C3)C1` [Compound 108], the inhibition at 0.3 µM was greater than 75%.
For the compound `O=C(COCc1ccccc1)N1CCc2c(ncnc2NCC23CC4CC(CC(C4)C2)C3)C1` [Compound 111], the inhibition at 0.3 µM was greater than 75%.
Regarding `O=C(c1ccc(Cl)cc1Cl)N1CCc2c(ncnc2NCC23CC4CC(CC(C4)C2)C3)C1` [Compound 113], the inhibition at 0.3 µM is greater than 75%.
For `O=C(C1CC1)N1CCc2c(ncnc2NCC23CC4CC(CC(C4)C2)C3)C1` [Compound 115, 4-[(Adamantan-1-ylmethyl)-amino]-5,8-dihydro-6H-pyrido[3,4-d]pyrimidin-7-yl-cyclopropyl-methanone], the inhibition at 0.1 µM was greater than 75%.
As to `COc1cccc(CC(=O)N2CCc3c(ncnc3NCC34CC5CC(CC(C5)C3)C4)C2)c1` [Compound 116], the inhibition at 0.3 µM lay within 25 to 50%.
Regarding `O=C(COc1ccc(Cl)cc1)N1CCc2c(ncnc2NCC23CC4CC(CC(C4)C2)C3)C1` [Compound 119], the inhibition at 0.3 µM was 25 to 50%.
Same read-out and setting: with `O=C(Cc1ccc(Cl)cc1)N1CCc2c(ncnc2NCC23CC4CC(CC(C4)C2)C3)C1` [Compound 120] the figure was 25 to 50%.
